Laboratory results reported in ChEMBL document CHEMBL3352214, “Studies on indolizines. Evaluation of their biological properties as microtubule-interacting agents and as melanoma targeting compounds” (Eur J Med Chem, 2015).

Assays:
[1] = Inhibition of sheep brain tubulin polymerization by fluorescence assay; parameters: species or system Ovis aries
Ovis aries = organism: Ovis aries; experiment: Inhibition of sheep brain tubulin polymerization at 100 uM by fluorescence assay

IC50 [1] | inhibition (Ovis aries) | Compound
81.2 µM | 61% | COC(=O)c1c(C(=O)OC)c2c(C)cc(C)cn2c1C(=O)c1ccc(OC)cc1
174 µM | 58% | CCOC(=O)c1c(C(=O)OCC)c2cccc(C)n2c1C(=O)c1cc(OC)c(OC)c(OC)c1

Compound | IC50 [1] | inhibition (Ovis aries)
COc1cc([C@@H]2c3cc4c(cc3C[C@H]3COC(=O)[C@@H]32)OCO4)cc(OC)c1OC [DESOXYPODOPHYLLOTOXIN] | 1.76 µM | 100%
